Source: patent publication US7598244B2, “[1,2,4]triazolo[1,5,a]pyrimidin-2-ylurea derivative and use thereof” (Nippon Kayaku Kabushiki Kaisha, priority 2003, dated 2009)

Tested on: MHC class I molecules of T1 cells (human lymphoma cell line 174×CEM.)
Assay: Effect on expression of MHC class I from T1 cells (flow cytometry, MFI)
Type: cell-based
Conditions: 3 days culture
Method in brief: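 EC20 is the compound level that lowers MHC class I MFI by 20% relative to compound-free cultures. Read-out was flow cytometry after FITC W6/32 staining.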

Row | Compound | EC20 (concentration necessary for suppressing 20% of the expression level of MHC class I molecules)
1 | COc1ccc(-c2ccnc3nc(NC(=O)NC(C)C)nn23)cc1OC [Example 086] | 340 nM
2 | CCC[C@H](NC(=O)Nc1nc2nccc(-c3ccc(OC)cc3)n2n1)C(=O)Nc1ccccc1 [Example 151] | 220 nM
3 | COCC/C=C/[C@H](C)NC(=O)Nc1nc2nccc(-c3cccs3)n2n1 [Example 290] | 340 nM
4 | COc1ccc(-c2ccnc3nc(NC(=O)N[C@H](C(=O)N4CCOCC4)C(C)C)nn23)cc1 [Example 070] | 480 nM
5 | CC(C)COc1cccc(-c2ccnc3nc(NC(=O)NC(C)C)nn23)c1 [Example 172] | 240 nM
6 | O=C(Nc1nc2nccc(-c3cccc(Cl)c3)n2n1)NC1CCCCC1 [Example 016] | 730 nM
7 | COC[C@H](C)NC(=O)Nc1nc2nccc(-c3ccc(OC)cc3)n2n1 [Example 237] | 250 nM
8 | C[C@H](NC(=O)Nc1nc2nccc(-c3cccs3)n2n1)C(=O)OC(C)(C)C [Example 050] | 330 nM
9 | COc1ccc(-c2ccnc3nc(NC(=O)N[C@@H](C)C(=O)Nc4ccccc4)nn23)cc1 [Example 117] | 190 nM
10 | COc1ccc(-c2ccnc3nc(NC(=O)NC(C)CCC(C)=O)nn23)cc1 (stereo not drawn) [Example 326] | 210 nM
11 | C[C@H](NC(=O)Nc1nc2nccc(-c3cccc(O)c3)n2n1)c1cccc(O)c1 [Example 267] | 550 nM
12 | CCCCNC(=O)[C@@H](NC(=O)Nc1nc2nccc(-c3ccc(OC)cc3)n2n1)C(C)C [Example 091] | 210 nM
13 | COc1ccc([C@H](C)NC(=O)Nc2nc3nccc(-c4cccs4)n3n2)cc1 [Example 176] | 200 nM
14 | COc1ccc(-c2ccnc3nc(NC(=O)NC4CCCC(C(=O)N(C)C)C4)nn23)cc1 (stereo not drawn) [Example 175] | 300 nM
15 | COc1cccc([C@H](C)NC(=O)Nc2nc3nccc(-c4ccc(OC(=O)N5CCC(N6CCCCC6)CC5)cc4)n3n2)c1 [Example 293] | 90 nM
16 | COc1cc(C(C)NC(=O)Nc2nc3nccc(-c4cccc(OCc5cccnc5)c4)n3n2)cc(OC)c1OC (stereo not drawn) [Example 307] | 140 nM
17 | CC(C)NC(=O)Nc1nc2nccc(-c3cccc(O)c3)n2n1 [Example 084] | 420 nM
18 | COc1cccc([C@H](C)NC(=O)Nc2nc3nccc(-c4ccc(OCC(=O)O)cc4)n3n2)c1 [Example 229] | 690 nM
19 | CC[C@H](C)NC(=O)Nc1nc2nccc(-c3ccc(OC)cc3)n2n1 [Example 234] | 220 nM
20 | COCCOc1cccc(-c2ccnc3nc(NC(=O)N[C@@H](C)CCCC(C)C)nn23)c1 [Example 264] | 70 nM
21 | COc1cccc(-c2ccnc3nc(NC(=O)NC(C)C)nn23)c1 [Example 044] | 480 nM
22 | COc1ccc(-c2ccnc3nc(NC(=O)NCCN4CCOCC4)nn23)cc1 [Example 064] | 670 nM
23 | COc1ccc(-c2ccnc3nc(NC(=O)N[C@@H](C)C(=O)NCc4ccccc4)nn23)cc1 [Example 119] | 210 nM
24 | CC(CCCC(C)(C)O)NC(=O)Nc1nc2nccc(-c3cccs3)n2n1 (stereo not drawn) [Example 272, 1-(5-hydroxy-1,5-dimethylhexyl)-3-(7-thiophen-2-yl[1,2,4]triazolo[1,5-a]pyrimidin-2-yl)urea] | 69 nM
25 | COC(=O)C1CCCC(NC(=O)Nc2nc3nccc(-c4ccc(OC)cc4)n3n2)C1 (stereo not drawn) [Example 168] | 670 nM
26 | CCNC(=O)Nc1nc2nccc(-c3ccc(OC)cc3)n2n1 [Example 031] | 400 nM
27 | COc1ccc(-c2ccnc3nc(NC(=O)NCc4ccccc4OC)nn23)cc1 [Example 214] | 420 nM

Row | Compound | EC20 (concentration necessary for suppressing 20% of the expression level of MHC class I molecules)
28 | CCOC(=O)N1CCC(NC(=O)Nc2nc3nccc(-c4ccc(OC)cc4)n3n2)CC1 [Example 138] | 150 nM
29 | COc1ccc(-c2ccnc3nc(NC(=O)NCc4ccncc4)nn23)cc1 [Example 103] | 620 nM
30 | COc1ccc(-c2ccnc3nc(NC(=O)N[C@H](C(=O)N(C)Cc4ccccc4)C(C)C)nn23)cc1 [Example 093] | 700 nM
31 | COC(C)(C)CCC[C@H](C)NC(=O)Nc1nc2nccc(-c3cccs3)n2n1 [Example 288] | 20 nM
32 | CC(CCC(C)(C)O)NC(=O)Nc1nc2nccc(-c3ccc4c(c3)OCO4)n2n1 (stereo not drawn) [Example 330] | 210 nM
33 | O=C(Nc1nc2nccc(-c3ccc(O)c(O)c3)n2n1)NC1CCCCC1 [Example 068] | 140 nM
34 | CC[C@H](NC(=O)Nc1nc2nccc(-c3ccc(OC)cc3)n2n1)C(=O)Nc1ccccc1 [Example 148] | 260 nM
35 | COc1ccc(-c2ccnc3nc(NC(=O)N[C@H](C(=O)NCCc4ccncc4)C(C)C)nn23)cc1 [Example 116] | 570 nM
36 | CCC(CC)NC(=O)Nc1nc2nccc(-c3ccc(OC)cc3)n2n1 [Example 128] | 540 nM
37 | COc1cccc([C@H](C)NC(=O)Nc2nc3nccc(-c4cccc(OCc5ccccn5)c4)n3n2)c1 [Example 201] | 160 nM
38 | O=C(Nc1nc2nccc(-c3cccc(O)c3)n2n1)NC1CCCCC1 [Example 085] | 400 nM
39 | COc1ccc(-c2ccnc3nc(NC(=O)NCc4ccccn4)nn23)cc1 [Example 083] | 870 nM
40 | COc1ccc(-c2ccnc3nc(NC(=O)NC(C)c4cccc(O)c4)nn23)cc1 (racemic) [Example 196] | 170 nM
41 | COc1cccc([C@H](C)NC(=O)Nc2nc3nccc(-c4cccs4)n3n2)c1 [Example 181] | 430 nM
42 | COc1cccc([C@H](C)NC(=O)Nc2nc3nccc(-c4cccc(OCCCc5ccncc5)c4)n3n2)c1 [Example 211] | 60 nM
43 | CC(CCCC(=O)N1CCOCC1)NC(=O)Nc1nc2nccc(-c3cccs3)n2n1 (stereo not drawn) [Example 287] | 770 nM
44 | COc1ccc(-c2ccnc3nc(NC(=O)NC(C)c4cccc(OC(C)C)c4)nn23)cc1 (racemic) [Example 231] | 50 nM
45 | CCCC(C)NC(=O)Nc1nc2nccc(-c3ccc(OC)cc3)n2n1 (stereo not drawn) [Example 285] | 320 nM
46 | COCCOCOc1cccc(-c2ccnc3nc(NC(=O)N[C@@H](C)c4cccc(OC)c4)nn23)c1 [Example 213] | 150 nM
47 | COc1ccc(-c2ccnc3nc(NC(=O)NC(C)c4cccc(OC(=O)OCc5ccccc5)c4)nn23)cc1 (racemic) [Example 197] | 210 nM
48 | COCCCNC(=O)Nc1nc2nccc(-c3ccc(OC)cc3)n2n1 [Example 106] | 510 nM
49 | C[C@H](NC(=O)Nc1nc2nccc(-c3cccs3)n2n1)c1ccc(O)cc1 [Example 182] | 280 nM
50 | CC(C)CCC[C@H](C)NC(=O)Nc1nc2nccc(-c3ccc(OCCN4CCOCC4)cc3)n2n1.Cl [Example 258, (S)-1-(1,5-dimethylhexyl)-3-{7-[4-(2-morpholin-4-ylethoxy)phenyl]-[1,2,4]triazolo[1,5-a]pyrimidin-2-yl}urea hydrochloride] | 8.7 nM
51 | CCOCCC(C)NC(=O)Nc1nc2nccc(-c3cccs3)n2n1 (stereo not drawn) [Example 281] | 120 nM
52 | COc1ccc(-c2ccnc3nc(NC(=O)NC(C)CCC4(C)OCCO4)nn23)cc1 (stereo not drawn) [Example 323] | 30 nM
53 | COc1ccc(-c2ccnc3nc(NC(=O)N[C@@H](C)C(C)C)nn23)cc1 [Example 216] | 160 nM
54 | O=C(Nc1ccc(O)cc1)Nc1nc2nccc(-c3cccs3)n2n1 [Example 023] | 430 nM
